Data: patent publication US9918972B2, “Treatment of leukemia with artemisinin derivatives and combinations with other antineoplastic agents” (UNIVERSITY OF MARYLAND, BALTIMORE, priority 2014, dated 2018)
Where a name gives a salt, the structure may show the parent alone.

Tests used:
KOPN8 cells = experiment: alamarBlue cytotoxicity assay, single-drug IC50, 48 h; type: cell-based; details: Homo sapiens, KOPN-8
Method: Cytotoxicity was assessed using alamarBlue assays (Life Technologies, Grand Island, N.Y.; used for IC50 determinations and all drug combinations except the drug combination screen (method described separately below)) or Trypan Blue dye exclusion (Life Technologies, Grand Island, N.Y.; used only for experiments using inhibitors that could interfere with alamarBlue assay performance (NAC, Tiron, DFO)).
Cell lines were seeded in 96-well tissue culture plates at 10^4 cells per well (myeloid leukemia lines) or 2×10^4 cells per well (lymphoid leukemia lines) in culture medium, followed by addition of drugs at the indicated concentrations. 2-4 wells per plate containing media-only were included for background subtraction. Peripheral wells were filled with sterile water to minimize the effects of evaporation.
MOLM14 cells were treated with each of these drugs, alone and in combination with ART-838 or AS at an equipotency ratio based on the IC50s for each drug (Table 1). In Table 1, KOPN8 and MOLM14 cell lines were treated with a range of concentrations of each drug for 48 h then cytotoxicity was measured via alamarBlue assay. Results were normalized to cells treated with vehicle (≦0.5% DMSO) alone. IC50s were calculated using CompuSyn software and represent the means of at least three experiments performed in triplicate. Addition of ART-838 or AS enhanced the cytotoxicity of all six tested drugs across a range of concentrations (FIG. 2). Drug interactions were typically most favorable (more additive/synergistic or less antagonistic) at higher doses.

[1] = test system: MOLM14-luc AML xenografts; experiment: Subcutaneous MOLM14-luc xenograft growth in NSG mice (ARA with ART-838); type: in vivo; details: ARA 40 mg/kg/d i.p. plus ART-838 200 mg/kg/d p.o.
Method: FIG. 14. ART-838 enhanced in vivo efficacy of ARA against acute leukemia xenografts in NSG mice. NSG mice transplanted subcutaneously with luciferase labeled MOLM14 (MOLM14-luc) AML cells, were treated with vehicle, ARA (“Ara-C”), ART-838 or ART-838 plus ARA starting on day 17 after transplantation. Ara-C (40 mg/kg/d) was given i.p. on day 17, 18, 19, 20, 21 and 24. ART-838 (200 mg/kg/d) was given p.o. on day 17, 20 and 24. Mouse tumors were measured on the indicated days.
Highly immunodeficient NSG mice, obtained originally from Jackson Laboratory (Bar Harbor, Me.), were bred and housed in the UMSOM animal facilities, and handled in a laminar flow hood under aseptic conditions. All experiment procedures and animal care were in compliance with the NIH guidelines for the Care and Use of Laboratory Animals and approved by the UMSOM Institutional Animal Care and Use Committee. ART-838 were formulated in Tween 80:ethanol (7:3, v:v) and diluted 1:10 in filtered deionized water immediately before administration. […] Mice were monitored daily and euthanized when tumors reached an estimated mass of 2000 mg (using the formula: [length×width2]/2, assuming density=1 mg/mm3).
The anti-leukemic efficacy of ART-838 plus ARA was tested in NSG mice transplanted subcutaneously with luciferase labeled MOLM14 (MOLM14-luc) AML cells. […] Mouse tumors were measured with calipers on the indicated days.

MOLM14 cells [2] = experiment: ROS - mitochondrial superoxide (MitoSOX flow cytometry); type: cell-based, human; details: 16 h; for effect on AS-induced superoxide generation: MOLM14, combined with AS, 2.25x IC50s
Method: FIGS. 4A-4D. […] CIs were computed as described above. CI<1 indicates synergy, CI=1, additivity, CI>1, antagonism. […] Cells were then loaded with 5 μM MitoSox for 30 min, washed, and analyzed by flow cytometry for MitoSox fluorescence (indicating mitochondrial superoxide) in the FL2 channel. […] Error bars represent the SEM of three independent experiments.

MOLM14 cells [3] = experiment: Preliminary cytotoxicity of ROS/iron inhibitors (Trypan Blue dye exclusion assays); type: cell-based, human; details: read-out: approximate 48-hour IC50
MOLM14 cells [4] = experiment: alamarBlue cytotoxicity assay, single-drug IC50, 48 h; type: cell-based, human; details: Homo sapiens, MOLM-14; MOLM14, single drug, 48 h, alamarBlue
Method: Peripheral wells were filled with sterile water to minimize the effects of evaporation. […] Results were normalized to cells treated with vehicle (≦0.5% DMSO) alone. IC50s were calculated using CompuSyn software and represent the means of at least three experiments performed in triplicate.

MOLM14 cells [5] = experiment: Drug combination analysis (Chou and Talalay), simultaneous 48 h treatment, alamarBlue; type: cell-based, human; details: MOLM14, combined with AS, 2.25x single-drug IC50s
Method: FIGS. 2A-2B. ART-838 or AS enhanced the cytotoxicity of all six antileukemic drugs tested in MOLM14. […] Each experiment was performed three times in triplicate, and error bars represent the SEM. All panels have error bars but some are too small to be visible. Combination indices (CI) were computed for each drug combination using CompuSyn software, based on the Median Effect Principle and the CI theorem of Chou-Talalay, wherein CI=1 indicates additivity, CI<1 synergism, and CI>1 antagonism.
FIGS. 4A-4D. Effects of ART-838- and AS-containing drug combinations on MOLM14 growth and superoxide generation. […]. CIs were computed as described above. CI<1 indicates synergy, CI=1, additivity, CI>1, antagonism. […] Cells were then loaded with 5 μM MitoSox for 30 min, washed, and analyzed by flow cytometry for MitoSox fluorescence (indicating mitochondrial superoxide) in the FL2 channel. Mean fluorescence intensity (MFI) was normalized to that of vehicle control (0.5% DMSO) with no pretreatment (100%, lower dotted lines). Upper dotted lines show MFI of ART-838- or AS-treated cells. Error bars represent the SEM of three independent experiments.
For each two-drug pair, dose-response curves were generated for each drug individually and for the two drugs combined. […]. […]

MOLM14 AML xenografts = experiment: Subcutaneous MOLM14 xenograft growth in NSG mice (SOR with AS); type: in vivo; details: SOR plus AS p.o.
Method: FIG. 15. AS enhanced in vivo efficacy of Sorafenib (SOR) against acute leukemia xenografts in NSG mice. […] Drug or vehicle were given p.o. on day 3-7, 17-21, and 31-35 when possible. Mouse tumors were measured on the indicated days.
The NSG mice were obtained, maintained and handled as described in the paragraph immediately above. AS was also formulated in Tween 80:ethanol (7:3, v:v) and diluted 1:10 in filtered deionized water immediately before administration. For the human AML xenograft model, 6-12-week-old male NSG mice (>20 g) were transplanted sc with MOLM14 cells on day 0 and drug-treated via oral gavage, as specified in legend. Mice were monitored daily and euthanized when tumors reached an estimated mass of 2000 mg as described in the paragraph immediately above.
Palpable tumors appeared about 2 weeks after transplantation.

Nc1ccn([C@@H]2O[C@H](CO)[C@@H](O)[C@@H]2O)c(=O)n1 [ARA, cytarabine]
IC50 (KOPN8 cells): 0.073 µM
tumor growth (tumor size on day 24) [1]: inhibited tumor growth substantially more than did either drug alone
effect on AS-induced superoxide generation (MOLM14 cells [2]): further enhanced

CC(=O)N(O)CCCCCNC(=O)CCC(=O)N(O)CCCCCNC(=O)CCC(=O)N(O)CCCCCN [DFO, deferoxamine mesylate]
IC50 (MOLM14 cells [3]; Homo sapiens, MOLM-14, 48 h): ~11 µM

COc1cccc2c1C(=O)c1c(O)c3c(c(O)c1C2=O)C[C@@](O)(C(=O)CO)C[C@@H]3O[C@H]1C[C@H](N)[C@H](O)[C@H](C)O1 [DOX, doxorubicin]
IC50 (MOLM14 cells [4]): 0.079 µM
IC50 (KOPN8 cells): 0.03 µM
effect on ART-838-induced superoxide generation (MOLM14 cells [2]; MOLM14, combined with ART-838, 2.25x IC50s): further enhanced
effect on AS-induced superoxide generation (MOLM14 cells [2]): further enhanced

C[C@]12O[C@H](C[C@]1(O)CO)n1c3ccccc3c3c4c(c5c6ccccc6n2c5c31)CNC4=O [LES, lestaurtinib]
Combination index (CI), interaction (MOLM14 cells [5]): 1.5
IC50 (MOLM14 cells [4]): 0.003 µM
IC50 (KOPN8 cells): 0.045 µM

CC(=O)N[C@@H](CS)C(=O)O [NAC]
IC50 (MOLM14 cells [3]; MOLM14, preliminary experiments): ~25000 µM

CNC(=O)c1cc(Oc2ccc(NC(=O)Nc3ccc(Cl)c(C(F)(F)F)c3)cc2)ccn1 [SOR, sorafenib]
IC50 (MOLM14 cells [4]): 0.004 µM
IC50 (KOPN8 cells): 4.2 µM
tumor growth (tumor size on day 24) (MOLM14 AML xenografts): inhibited tumor growth substantially more than did either drug alone
effect on AS-induced superoxide generation (MOLM14 cells [2]): reduced

O=S(=O)(O)c1cc(O)c(O)c(S(=O)(=O)O)c1 [Tiron]
IC50 (MOLM14 cells [3]; Homo sapiens, MOLM-14, 48 h, MOLM14, preliminary experiments): ~1000 µM
